pEC50: −log10 of the molar value. Structures can show the parent of a compound that is named as a salt.
system: NQO1 specific enzyme activity in BEAS-2B cells (marker for NRF2 activation); assay: BEAS-2B NQO1 MTT Assay; type: cell-based; details: Homo sapiens, BEAS-2B, 48 h, NQO1 specific activity induction, 48 hours with compound
Excerpt: NAD(P)H:quinone oxidoreductase 1 (NQO1), also called DT diaphorase, is a homodimeric FAD-containing enzyme that catalyzes obligatory NAD(P)H-dependent two-electron reductions of quinones and protects cells against the toxic and neoplastic effects of free radicals and reactive oxygen species arising from one-electron reductions. The transcription of NQO1 is finely regulated by NRF2, and thus NQO1 activity is a good marker for NRF2 activation. On day one, frozen BEAS-2B cells (ATCC) were thawed in a water bath, counted, and re-suspended at a concentration of 250,000 cells/mL. Fifty microliters of cells were plated in 384 well black clear-bottomed plates. Plates were incubated at 37° C., 5% CO2 overnight. On day two, plates were centrifuged and 50 nL of compound or controls were added to the cells. Plates were then incubated at 37° C., 5% CO2 for 48 hours. On day four, medium was aspirated from the plate and crude cell lysates were made by adding 13 uL of 1× Cell Signaling Technologies lysis buffer with 1 Complete, Mini, EDTA-free Protease Inhibitor Tablet (Roche) for each 10 mL of lysis buffer. After lysis plates were incubated for 20 minutes at room temperature. Two microliters of lysate were removed for use in Cell Titer Glo assay (Promega) and MTT cocktail was prepared (Prochaska et. al. 1998) for measurement of NQO1 activity. Fifty microliters of MTT cocktail was added to each well, plate was centrifuged, and analyzed on an Envision plate reader (Perkin Elmer) using Absorbance 570 nm label for 30 minutes. Product formation was measured kinetically and the pEC50 of NQO1 specific activity induction was calculated by plotting the change in absorbance (Delta OD/min) versus the log of compound concentration followed by 3-parameter fitting.
pEC50 is the negative log of the EC50.
EC50s<1 nM (+++++), EC50s 1 nM-10 nM (++++), EC50s 10 nM-100 nM (+++), EC50s 100 nM-1 uM (++), EC50s 1 uM-10 uM (+); EC50s>10 uM (−), or were not determined (ND).

Compound | pEC50
Cc1ccc(C(OCc2cn(CC3CCN(C(=O)OC(C)(C)C)CC3)nn2)C(C)(C)C(=O)O)cc1CN1C[C@@H](C)Oc2ccccc2S1(=O)=O (stereo partly drawn) [Example 20, 3-((1-((1-(Tert-butoxycarbonyl)piperidin-4-yl)methyl)-1H-1,2,3-triazol-4-yl)methoxy)-2,2-dimethyl-3-(4-methyl-3-(((R)-4-methyl-1,1-dioxido-3,4-dihydro-2H-benzo[b][1,4,5]oxathiazepin-2-yl)methyl)phenyl)propanoic acid] | 8.00 to 9.00
CCn1cc(COC(c2ccc(C)c(CN(C3CCCCC3)S(=O)(=O)c3ccccc3)c2)C(C)(C)C(=O)O)nn1 (stereo not drawn) [Example 98, 3-(3-((N-cyclohexylphenylsulfonamido)methyl)-4-methylphenyl)-3-((1-ethyl-1H-1,2,3-triazol-4-yl)methoxy)-2,2-dimethylpropanoic acid] | 7.00 to 8.00
Cc1ccc(C(OCc2cn(CC3CC[N+]4(CCOCC4)CC3)nn2)C(C)(C)C(=O)O)cc1CN1CC(C)Oc2ccccc2S1(=O)=O (stereo in doubt) [Example 56, 3-((1-(3-Oxa-6-azaspiro[5.5]undecan-6-ium-9-ylmethyl)-1H-1,2,3-triazol-4-yl)methoxy)-2,2-dimethyl-3-(4-methyl-3-(((S)-4-methyl-1,1-dioxido-3,4-dihydro-2H-benzo[b][1,4,5]oxathiazepin-2-yl)methyl)phenyl)propanoate] | 5.00 to 6.00
CCn1cc(CO[C@H](c2ccc(C)c(CN3C[C@@H](C)Cc4ccncc4S3(=O)=O)c2)C(C)(C)C(=O)O)nn1 [Example 61, (3R)-((1-ethyl-1H-1,2,3-triazol-4-yl)methoxy)-2,2-dimethyl-3-(4-methyl-3-(((S)-4-methyl-1,1-dioxido-4,5-dihydropyrido[4,3-f][1,2]thiazepin-2(3H)-yl)methyl)phenyl)propanoic acid] | > 9.00
CCn1cc(COC(c2ccc(C)c(CN(CC3CCCCCC3)C(C)=O)c2)C(C)(C)C(=O)O)nn1 (stereo not drawn) [Example 54, 3-(3-((N-(cycloheptylmethyl)acetamido)methyl)-4-methylphenyl)-3-((1-ethyl-1H-1,2,3-triazol-4-yl)methoxy)-2,2-dimethylpropanoic acid] | 6.00 to 7.00
Cc1ccc([C@@H](OCc2cn(CCOCCn3cc(CO[C@H](c4ccc(C)c(CN5C[C@@H](C)Oc6ccccc6S5(=O)=O)c4)C(C)(C)C(=O)O)nn3)nn2)C(C)(C)C(=O)O)cc1CN1C[C@@H](C)Oc2ccccc2S1(=O)=O (relative stereo) [Example 51, (R,rel-3R, rel-3′R)-3,3′-(((1,1′-(oxybis(ethane-2,1-diyl))bis(1H-1,2,3-triazole-4,1-diyl))bis(methylene))bis(oxy))bis(2,2-dimethyl-3-(4-methyl-3-(((R)-4-methyl-1,1-dioxido-3,4-dihydro-2H-benzo[b][1,4,5]oxathiazepin-2-yl)methyl)phenyl)propanoic acid)] | 5.00 to 6.00
CC[C@@H]1CN(Cc2cc([C@@H](OCc3cn(C)nn3)C(C)(C)C(=O)O)ccc2C)Cc2ncccc2O1 [Example 108, (R)-3-(3-(((R)-2-Ethyl-2,3-dihydropyrido[2,3-f][1,4]oxazepin-4(5H)-yl)methyl)-4-methylphenyl)-2,2-dimethyl-3-((1-methyl-1H-1,2,3-triazol-4-yl)methoxy)propanoic acid Hydrochloride] | 7.00 to 8.00
CCC(=O)N1CCC(Cn2cc(COC(c3ccc(C)c(CN4C[C@@H](C)Oc5ccccc5S4(=O)=O)c3)C(C)(C)C(=O)O)nn2)CC1 (stereo partly drawn) [Example 33, 2,2-Dimethyl-3-(4-methyl-3-(((R)-4-methyl-1,1-dioxido-3,4-dihydro-2H-benzo[b][1,4,5]oxathiazepin-2-yl)methyl)phenyl)-3-((1-((1-propionylpiperidin-4-yl)methyl)-1H-1,2,3-triazol-4-yl)methoxy)propanoic acid] | 7.00 to 8.00
Cc1ccc(C(OCc2cn(Cc3ccc(Cn4cc(COC(c5ccc(C)c(CN6C[C@@H](C)Oc7ccccc7S6(=O)=O)c5)C(C)(C)C(=O)O)nn4)cc3)nn2)C(C)(C)C(=O)O)cc1CN1C[C@@H](C)Oc2ccccc2S1(=O)=O (stereo partly drawn) [Example 48, (R)-3,3′-(((1,1′-(1,4-phenylenebis(methylene))bis(1H-1,2,3-triazole-4,1-diyl))bis(methylene))bis(oxy))bis(2,2-dimethyl-3-(4-methyl-3-(((R)-4-methyl-1,1-dioxido-3,4-dihydro-2H-benzo[b][1,4,5]oxathiazepin-2-yl)methyl)phenyl)propanoic acid)] | 7.00 to 8.00
Cc1ccc([C@H](OCc2cn(CCOCCn3cc(CO[C@@H](c4ccc(C)c(CN5C[C@@H](C)Oc6ccccc6S5(=O)=O)c4)C(C)(C)C(=O)O)nn3)nn2)C(C)(C)C(=O)O)cc1CN1C[C@@H](C)Oc2ccccc2S1(=O)=O (relative stereo) [Example 50, (R,rel-3S, rel-3′S)-3,3′-(((1,1′-(oxybis(ethane-2,1-diyl))bis(1H-1,2,3-triazole-4,1-diyl))bis(methylene))bis(oxy))bis(2,2-dimethyl-3-(4-methyl-3-(((R)-4-methyl-1,1-dioxido-3,4-dihydro-2H-benzo[b][1,4,5]oxathiazepin-2-yl)methyl)phenyl)propanoic acid)] | 7.00 to 8.00
CCn1cc(COC(c2ccc(C)c(CN(C3CCCCC3)S(=O)(=O)c3ccc(OC)cc3)c2)C(C)(C)C(=O)O)nn1 (stereo not drawn) [Example 97, 3-(3-(((N-cyclohexyl-4-methoxyphenyl)sulfonamido)methyl)-4-methylphenyl)-3-((1-ethyl-1H-1,2,3-triazol-4-yl)methoxy)-2,2-dimethylpropanoic acid] | 6.00 to 7.00
C#CCOC(c1ccc(C)c(CN2C[C@@H](C)Oc3ccccc3S2(=O)=O)c1)C(C)(C)C(=O)O (stereo partly drawn) [Example 2, 2,2-Dimethyl-3-(4-methyl-3-(((R)-4-methyl-1,1-dioxido-3,4-dihydro-2H-benzo[b][1,4,5]oxathiazepin-2-yl)methyl)phenyl)-3-(prop-2-yn-1-yloxy)propanoic acid] | 6.00 to 7.00
Cc1ccc(C(OCc2cn(CC3CCN(C4CCN(C)CC4)CC3)nn2)C(C)(C)C(=O)O)cc1CN1C[C@@H](C)Oc2ccccc2S1(=O)=O (stereo partly drawn) [Example 55, 2,2-Dimethyl-3-(4-methyl-3-(((R)-4-methyl-1,1-dioxido-3,4-dihydro-2H-benzo[b][1,4,5]oxathiazepin-2-yl)methyl)phenyl)-3-((1-((1′-methyl-[1,4′-bipiperidin]-4-yl)methyl)-1H-1,2,3-triazol-4-yl)methoxy)propanoic Acid, Formic Acid Salt] | 6.00 to 7.00
CC[C@@H]1CN(Cc2cc(C(OCc3cn(CC)nn3)C(F)(F)C(=O)O)ccc2C)S(=O)(=O)c2ccccc2O1 (stereo partly drawn) [Example 60, 3-(3-(((R)-4-Ethyl-1,1-dioxido-3,4-dihydro-2H-benzo[b][1,4,5]oxathiazepin-2-yl)methyl)-4-methylphenyl)-3-((1-ethyl-1H-1,2,3-triazol-4-yl)methoxy)-2,2-difluoropropanoic acid] | 6.00 to 7.00
CC[C@@H]1CN(Cc2cc(C(OCc3cn(Cc4cccc(-c5cccc(C(=O)O)c5)c4)nn3)C(C)(C)C(=O)O)ccc2C)S(=O)(=O)c2ccccc2O1 (stereo partly drawn) [Example 23, 3′-((4-((2-Carboxy-1-(3-(((R)-4-ethyl-1,1-dioxido-3,4-dihydro-2H-benzo[b][1,4,5]oxathiazepin-2-yl)methyl)-4-methylphenyl)-2-methylpropoxy)methyl)-1H-1,2,3-triazol-1-yl)methyl)-[1,1′-biphenyl]-3-carboxylic acid] | 7.00 to 8.00
CC[C@@H]1CN(Cc2cc(C(OCc3cn(Cc4cccc(Cn5cc(CO)nn5)c4)nn3)C(C)(C)C(=O)O)ccc2C)S(=O)(=O)c2ccccc2O1 (stereo partly drawn) [Example 28, 3-(3-(((R)-4-ethyl-1,1-dioxido-3,4-dihydro-2H-benzo[b][1,4,5]oxathiazepin-2-yl)methyl)-4-methylphenyl)-3-((1-(3-((4-(hydroxymethyl)-1H-1,2,3-triazol-1-yl)methyl)benzyl)-1H-1,2,3-triazol-4-yl)methoxy)-2,2-dimethyl-propanoic acid] | 7.00 to 8.00
COCCn1cc(CO[C@H](c2ccc(C)c(CN(Cc3ccccn3)S(=O)(=O)c3cccc(C(=O)O)c3)c2)C(C)(C)C(=O)O)nn1 [Example 93, (R)-3-(N-(5-(2-carboxy-1-((1-(2-methoxyethyl)-1H-1,2,3-triazol-4-yl)methoxy)-2-methylpropyl)-2-methylbenzyl)-N-(pyridin-2-ylmethyl)sulfamoyl)benzoic acid] | 6.00 to 7.00

same assay, conditions: NQO1 specific activity induction, 48 hours with compound

Compound | pEC50
Cc1ccc(C(OCc2cn(C3COC3)nn2)C(C)(C)C(=O)O)cc1CN1C[C@@H](C)Cc2ccncc2S1(=O)=O (single isomer, unassigned) [Example 102] | 7.00 to 8.00
